Data published in US7547803B2, “Process for producing a high purity aromatic polycarboxylic acid” (Mitsubishi Gas Chemical Company, Inc., priority 2003, dated 2009).

Experiment: solubility in water at 280° C.
Format: physicochemical

O=C(O)c1ccc2cc(C(=O)O)ccc2c1 [2,6-naphthalenedicarboxylic acid]
solubility of 2,6-naphthalenedicarboxylic acid in water: about 6 g in 100 g of water
